Data reported in US20260224550A1, “PDE4 DEGRADERS, PHARMACEUTICAL COMPOSITIONS, AND THERAPEUTIC APPLICATIONS” (BioTheryX, Inc., priority 2023, published 2026).

Key:
[1] = system: IL-2; test: Cell-based cytokine inhibition assay (PBMCs, anti-CD3/anti-CD28 stimulated, MSD kit): IL-2; details: PBMC, anti-CD3/anti-CD28 stimulation, 23 h with compound, relative to DMSO control
Description: (§1) Frozen primary blood mononuclear cells (PBMCs) were thawed and washed once with RPMI 1640 media supplemented with 10% fetal bovine serum, 1% penicillin, and 1% streptomycin. An anti-CD28 antibody at […] was added to the media as a co-stimulant. PBMCs were plated at 1×10^6 cells per well in a 96-well U bottom plate, which was pre-coated overnight with an anti-CD3 antibody at 1 μg/mL in PBS (100 μL/well). After the place was incubated for 1 h at 37° C. in a CO2 incubator, DMSO (control) or a compound was added. After the place was incubated for 23 h at 37° C. in a CO2 incubator, the cells were spun down at 1,500 rpm for 5 min. Supernatant media was collected for cytokine analysis using an MSD kit. Inhibitory activities of the compound were determined as a percentage of the DMSO control.

[2] = system: TNFα; test: Cell-based cytokine inhibition assay (PBMCs, anti-CD3/anti-CD28 stimulated, MSD kit): TNFα; details: PBMC, anti-CD3/anti-CD28 stimulation, 23 h with compound, relative to DMSO control
Description: as §1

[3] = system: IL-10; test: Cell-based cytokine inhibition assay (PBMCs, anti-CD3/anti-CD28 stimulated, MSD kit): IL-10; details: PBMC, anti-CD3/anti-CD28 stimulation, 23 h with compound, relative to DMSO control
Description: as §1

[4] = system: IFNγ; test: Cell-based cytokine inhibition assay (PBMCs, anti-CD3/anti-CD28 stimulated, MSD kit): IFNγ; details: PBMC, anti-CD3/anti-CD28 stimulation, 23 h with compound, relative to DMSO control
Description: as §1

[5] = system: PDE4D, in particular, PDE4D short isoform; test: Protein degradation assay in A549 cells (western blot): PDE4D; assay type: cell-based; details: 24 h, same conditions
Description: A549 cells were grown in RPMI 1640 media supplemented with 10% fetal bovine serum, streptomycin, and penicillin. The cells were plated in 6-well plates at 300,000 cells/well in the growth media. After overnight incubation, the cells were treated with DMSO (control) or a compound at predetermined concentrations (e.g., 10 nM, 100 nM, 1 μM, 3 μM, or 10 μM) for 24 h at 37° C. under 5% CO2. Whole cell extracts were prepared using an immunoprecipitation (IP) lysis buffer. The cells were washed once in PBS, and the cell pellets were resuspended in the IP lysis buffer and incubated for 15 min on ice. Cells debris was removed by centrifugation and the cleared whole cell lysates were transferred to new tubes for further analysis.
For a western blot analysis, the whole cell protein extracts were separated on 4-12% SDS-polyacrylamide gels, transferred to nitrocellulose, and probed with primary antibodies. Membranes were subsequently washed and probed with IRDYE® secondary antibodies. The signals were detected using an ODYSSEY® Imaging System. The antibodies used in the assay included anti-PDE4B antibody; anti-PDE4D antibodies (top, bottom, and short isoform); β-actin mouse monoclonal antibody; IRDYE® 680RD goat anti-rabbit antibody; and IRDYE® 800CW goat anti-mouse antibody.

Compound CCOc1cc([C@@H](CS(C)(=O)=O)N2C(=O)c3ccc(N4CCC(C5CCN(Cc6ccc(Oc7ccc8c(C9CCC(=O)NC9=O)nn(C)c8c7)cc6)CC5)CC4)cc3C2=O)ccc1OC (stereo partly drawn) [Compound B001, 5-(1′-(4-((3-(2,6-dioxopiperidin-3-yl)-1-methyl-1H-indazol-6-yl)oxy)benzyl)-[4,4′-bipiperidin]-1-yl)-2-((S)-1-(3-ethoxy-4-methoxyphenyl)-2-(methylsulfonyl)ethyl)-isoindoline-1,3-dione] has an IC50 [1] of 0.2 nM, an IC50 [2] of 0.3 nM and an IC50 [3] of 0.3 nM. It also gave an IC50 [4] of 0.9 nM.
Compound CCOc1cc([C@@H](CS(C)(=O)=O)N2C(=O)c3ccc(N4CCN(CC5CCN(Cc6ccc(Oc7ccc8c(C9CCC(=O)NC9=O)nn(C)c8c7)cc6)CC5)CC4)cc3C2=O)ccc1OC (stereo partly drawn) [Compound B002, 5-(4-((1-(4-((3-(2,6-dioxopiperidin-3-yl)-1-methyl-1H-indazol-6-yl)oxy)benzyl)-piperidin-4-yl)methyl)piperazin-1-yl)-2-((S)-1-(3-ethoxy-4-methoxyphenyl)-2-(methylsulfonyl)-ethyl)isoindoline-1,3-dione] has an IC50 [1] of 0.09 nM, an IC50 [2] of 0.09 nM and an IC50 [3] of 0.2 nM. For the same compound, the IC50 [4] was 0.3 nM.
With CCOc1cc([C@@H](CS(C)(=O)=O)N2C(=O)c3cccc(NC(C)=O)c3C2=O)ccc1OC [apremilast] the “degradation of PDE4D (result in words)” value [5] was “did not degrade”.
